Data as given in patent publication US20240390508A1, “HUMAN TRANSFERRIN RECEPTOR BINDING PEPTIDE-DRUG CONJUGATE” (priority 2021, published 2024).

Biological target: transferrin receptor (hTfR) (Homo sapiens, UniProt P02786)
Experiment: Intermolecular interaction evaluation test between transferrin receptor (hTfR) and peptide-nucleic acid conjugate using surface plasmon resonance (SPR)
Type: binding
Experimental: Intermolecular interaction evaluation test between transferrin receptor (hTfR) and peptide using surface plasmon resonance (SPR)
The various synthesized peptide-nucleic acid conjugates were tested for intermolecular interaction by surface plasmon resonance (SPR) of the peptide-nucleic acid conjugate with transferrin receptor (hTfR) using the method shown below. The specific test method is shown below.
NTA sensor chip (Global Life Science Technologies Japan Co., Ltd.) was inserted into Biacore T200 (Global Life Science Technologies Japan Co., Ltd.), prime operation was performed three times with running buffer: 10 mM HEPES pH 8.0 (Nacalai Tesque Co., Ltd.), 150 mM NaCl (Nacalai Tesque Co., Ltd.), 0.05% Tween 20 (Nacalai Tesque Co., Ltd.), 0.1% BSA (SIGMA-ALDRICH), and 1.0% DMSO (FUJIFILM Wako Pure Chemical Corporation), and equilibrated at a flow rate of 30 μL/min. 350 mM EDTA solution was reacted for 60 seconds at a flow rate of 10 μL/min, 0.5 mM NiCl2 solution (Kishida Chemical) was reacted for 60 seconds at a flow rate of 10 μL/min, and the NTA sensor chip was washed with 3 mM EDTA solution (Nacalai Tesque Co., Ltd.) for 60 seconds at a flow rate of 10 μL/min. After mixing 50 μL each of […] EDC solution (Global Life Science Technologies Japan Co., Ltd.) and […] NHS solution (Global Life Science Technologies Japan Co., Ltd.), the mixture was reacted for 420 seconds at a flow rate of 10 μL/min. 150 μL of a 0.5 μM hTfR solution was prepared by diluting with a running buffer and reacted for 300 seconds at a flow rate of 10 μL/min to immobilize hTfR on the NTA sensor chip. After immobilization, capping was performed by reacting with a 1.0 M ethanolamine aqueous solution (Global Life Science Technologies Japan Co., Ltd.) at a flow rate of 10 μL/min for 420 seconds. A peptide-nucleic acid conjugate solution adjusted to 10 mM in DMSO solution was diluted with running buffer to a final concentration of 10 μM peptide-nucleic acid conjugate solution, and 100 nM, 50 nM, 25 nM, 10 nM, 5 nM peptide-nucleic acid conjugate solutions were prepared. Using the aforementioned samples, the kinetics of the peptide against hTfR was obtained by SPR measurement.
The kinetics evaluation model was Single Cycle Kinetics, and curve fitting was performed using Biacore T200 Evaluation Software Version 3.0 (Global Life Science Technologies Japan Co., Ltd.). The obtained sensorgram was subjected to curve fitting using the least squares method, and the binding of the peptide-nucleic acid conjugate to hTfR was evaluated by determining the KD value.

Sequence of transferrin receptor (hTfR) (P02786 whole entry): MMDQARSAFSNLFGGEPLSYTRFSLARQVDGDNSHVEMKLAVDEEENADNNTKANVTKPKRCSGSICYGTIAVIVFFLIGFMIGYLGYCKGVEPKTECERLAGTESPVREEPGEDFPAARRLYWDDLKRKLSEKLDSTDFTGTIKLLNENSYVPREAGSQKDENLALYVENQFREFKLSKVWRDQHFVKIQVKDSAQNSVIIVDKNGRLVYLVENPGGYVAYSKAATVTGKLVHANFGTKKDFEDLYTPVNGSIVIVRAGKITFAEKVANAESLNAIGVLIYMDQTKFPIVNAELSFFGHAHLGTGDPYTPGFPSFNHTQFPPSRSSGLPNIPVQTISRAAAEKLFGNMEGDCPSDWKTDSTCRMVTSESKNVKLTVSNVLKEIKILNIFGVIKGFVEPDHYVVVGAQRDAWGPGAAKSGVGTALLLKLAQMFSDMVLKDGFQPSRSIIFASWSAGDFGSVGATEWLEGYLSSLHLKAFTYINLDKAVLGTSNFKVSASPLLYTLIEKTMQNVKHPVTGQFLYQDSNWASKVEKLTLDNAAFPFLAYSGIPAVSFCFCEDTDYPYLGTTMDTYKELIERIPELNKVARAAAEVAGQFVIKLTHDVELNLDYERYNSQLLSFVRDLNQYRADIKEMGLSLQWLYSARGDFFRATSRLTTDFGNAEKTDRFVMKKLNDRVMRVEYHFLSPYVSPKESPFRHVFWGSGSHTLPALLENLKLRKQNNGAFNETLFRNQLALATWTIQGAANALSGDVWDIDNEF

| Compound | Kd [µM] |
| --- | --- |
| CC[C@H](C)[C@@H]1NC(=O)[C@H](Cc2ccc(O)cc2)NC(=O)[C@H](Cc2ccc(O)cc2)NC(=O)[C@H](CC(N)=O)NC(=O)[C@H](Cc2c[nH]c3ccccc23)NC(=O)[C@H](C(C)C)NC(=O)[C@H](Cc2ccccc2)N(C)C(=O)[C@H](C(C)C)NC(=O)[C@H](C)NC(=O)CSC[C@@H](C(=O)NCC(=O)N[C@@H](CCCCn2cc(CCC(=O)NCCOCCOCC(=O)N[C@@H](CCCNC(=N)N)C(=O)N[C@@H](CCCNC(=N)N)C(=O)N[C@@H](CCCNC(=N)N)C(=O)NCC(=O)N3C[C@@H](COP(=O)(N(C)C)N4C[C@@H](COP(=O)(N(C)C)N5C[C@@H](COP(=O)(N(C)C)N6C[C@@H](COP(=O)(N(C)C)N7C[C@@H](COP(=O)(N(C)C)N8C[C@@H](COP(=O)(N(C)C)N9C[C@@H](COP(=O)(N(C)C)N%10C[C@@H](COP(=O)(N(C)C)N%11C[C@@H](COP(=O)(N(C)C)N%12C[C@@H](COP(=O)(N(C)C)N%13C[C@@H](COP(=O)(N(C)C)N%14C[C@@H](COP(=O)(N(C)C)N%15C[C@@H](COP(=O)(N(C)C)N%16C[C@@H](COP(=O)(N(C)C)N%17C[C@@H](COP(=O)(N(C)C)N%18C[C@@H](COP(=O)(N(C)C)N%19C[C@@H](COP(=O)(N(C)C)N%20C[C@@H](COP(=O)(N(C)C)N%21C[C@@H](COP(=O)(N(C)C)N%22C[C@@H](COP(=O)(N(C)C)N%23C[C@@H](COP(=O)(N(C)C)N%24C[C@@H](COP(=O)(N(C)C)N%25C[C@@H](COP(=O)(N(C)C)N%26C[C@@H](COP(=O)(N(C)C)N%27C[C@@H](COP(=O)(N(C)C)N(C)CC(N)=O)O[C@@H](n%28cnc%29c(=O)[nH]c(N)nc%29%28)C%27)O[C@@H](n%27cnc%28c(=O)[nH]c(N)nc%28%27)C%26)O[C@@H](n%26ccc(N)nc%26=O)C%25)O[C@@H](n%25ccc(N)nc%25=O)C%24)O[C@@H](n%24cnc%25c(N)ncnc%25%24)C%23)O[C@@H](n%23cnc%24c(N)ncnc%24%23)C%22)O[C@@H](n%22cnc%23c(N)ncnc%23%22)C%21)O[C@@H](n%21ccc(N)nc%21=O)C%20)O[C@@H](n%20ccc(N)nc%20=O)C%19)O[C@@H](n%19cc(C)c(=O)[nH]c%19=O)C%18)O[C@@H](n%18ccc(N)nc%18=O)C%17)O[C@@H](n%17cnc%18c(=O)[nH]c(N)nc%18%17)C%16)O[C@@H](n%16cnc%17c(=O)[nH]c(N)nc%17%16)C%15)O[C@@H](n%15ccc(N)nc%15=O)C%14)O[C@@H](n%14cc(C)c(=O)[nH]c%14=O)C%13)O[C@@H](n%13cc(C)c(=O)[nH]c%13=O)C%12)O[C@@H](n%12cnc%13c(N)ncnc%13%12)C%11)O[C@@H](n%11ccc(N)nc%11=O)C%10)O[C@@H](n%10ccc(N)nc%10=O)C9)O[C@@H](n9cc(C)c(=O)[nH]c9=O)C8)O[C@@H](n8cnc9c(=O)[nH]c(N)nc98)C7)O[C@@H](n7cnc8c(N)ncnc87)C6)O[C@@H](n6cnc7c(N)ncnc76)C5)O[C@@H](n5cnc6c(N)ncnc65)C4)O[C@@H](n4cc(C)c(=O)[nH]c4=O)C3)nn2)C(N)=O)NC(=O)[C@H](Cc2ccc(O)cc2)N(C)C(=O)[C@H](Cc2ccc(O)cc2)NC(=O)[C@H](CCCNC(=N)N)NC(=O)[C@H](CCCNC(=N)N)NC(=O)[C@H]([C@@H](C)CC)NC1=O (some centres unmarked) [Example 60] | < 0.1 |
| CC[C@H](C)[C@@H]1NC(=O)[C@H](Cc2ccc(O)cc2)NC(=O)[C@H](Cc2ccc(O)cc2)NC(=O)[C@H](CC(N)=O)NC(=O)[C@H](Cc2c[nH]c3ccccc23)NC(=O)[C@H](C(C)C)NC(=O)[C@H](Cc2ccccc2)N(C)C(=O)[C@H](C(C)C)NC(=O)[C@H](C)NC(=O)CSC[C@@H](C(=O)NCC(=O)N[C@@H](CCCCn2nnc3c2CCC2C(CC3)C2COC(=O)NCCOCCOCC(=O)N[C@@H](CCCNC(=N)N)C(=O)N[C@@H](CCCNC(=N)N)C(=O)N[C@@H](CCCNC(=N)N)C(=O)NCCC(=O)N2C[C@@H](COP(=O)(N(C)C)N3C[C@@H](COP(=O)(N(C)C)N4C[C@@H](COP(=O)(N(C)C)N5C[C@@H](COP(=O)(N(C)C)N6C[C@@H](COP(=O)(N(C)C)N7C[C@@H](COP(=O)(N(C)C)N8C[C@@H](COP(=O)(N(C)C)N9C[C@@H](COP(=O)(N(C)C)N%10C[C@@H](COP(=O)(N(C)C)N%11C[C@@H](COP(=O)(N(C)C)N%12C[C@@H](COP(=O)(N(C)C)N%13C[C@@H](COP(=O)(N(C)C)N%14C[C@@H](COP(=O)(N(C)C)N%15C[C@@H](COP(=O)(N(C)C)N%16C[C@@H](COP(=O)(N(C)C)N%17C[C@@H](COP(=O)(N(C)C)N%18C[C@@H](COP(=O)(N(C)C)N%19C[C@@H](COP(=O)(N(C)C)N%20C[C@@H](COP(=O)(N(C)C)N%21C[C@@H](COP(=O)(N(C)C)N%22C[C@@H](COP(=O)(N(C)C)N%23C[C@@H](COP(=O)(N(C)C)N%24C[C@@H](COP(=O)(N(C)C)N%25C[C@@H](COP(=O)(N(C)C)N%26C[C@@H](COP(=O)(N(C)C)N(C)CC(N)=O)O[C@@H](n%27cnc%28c(=O)[nH]c(N)nc%28%27)C%26)O[C@@H](n%26cc(C)c(=O)[nH]c%26=O)C%25)O[C@@H](n%25cc(C)c(=O)[nH]c%25=O)C%24)O[C@@H](n%24cnc%25c(=O)[nH]c(N)nc%25%24)C%23)O[C@@H](n%23ccc(N)nc%23=O)C%22)O[C@@H](n%22ccc(N)nc%22=O)C%21)O[C@@H](n%21cc(C)c(=O)[nH]c%21=O)C%20)O[C@@H](n%20ccc(N)nc%20=O)C%19)O[C@@H](n%19ccc(N)nc%19=O)C%18)O[C@@H](n%18cnc%19c(=O)[nH]c(N)nc%19%18)C%17)O[C@@H](n%17cnc%18c(=O)[nH]c(N)nc%18%17)C%16)O[C@@H](n%16cc(C)c(=O)[nH]c%16=O)C%15)O[C@@H](n%15cc(C)c(=O)[nH]c%15=O)C%14)O[C@@H](n%14ccc(N)nc%14=O)C%13)O[C@@H](n%13cc(C)c(=O)[nH]c%13=O)C%12)O[C@@H](n%12cnc%13c(=O)[nH]c(N)nc%13%12)C%11)O[C@@H](n%11cnc%12c(N)ncnc%12%11)C%10)O[C@@H](n%10cnc%11c(N)ncnc%11%10)C9)O[C@@H](n9cnc%10c(=O)[nH]c(N)nc%109)C8)O[C@@H](n8cnc9c(=O)[nH]c(N)nc98)C7)O[C@@H](n7cc(C)c(=O)[nH]c7=O)C6)O[C@@H](n6cnc7c(=O)[nH]c(N)nc76)C5)O[C@@H](n5cc(C)c(=O)[nH]c5=O)C4)O[C@@H](n4cc(C)c(=O)[nH]c4=O)C3)O[C@@H](n3ccc(N)nc3=O)C2)C(N)=O)NC(=O)[C@H](Cc2ccc(O)cc2)N(C)C(=O)[C@H](Cc2ccc(O)cc2)NC(=O)[C@H](CCCNC(=N)N)NC(=O)[C@H](CCCNC(=N)N)NC(=O)[C@H]([C@@H](C)CC)NC1=O (some centres unmarked) [Example 57] | < 0.1 |
